Consider nine compounds from US9499550B2 (BRISTOL-MYERS SQUIBB COMPANY, priority 2012, dated 2016).

Assay [1] concerns HCV genotype 1a (H77 strain) replicon in HUH-7 cells. Description: HCV replicon luciferase reporter assay, genotype 1a. Conditions: Hepatitis C virus, Huh-7, 72 h, HCV genotype 1a replicon luciferase assay, 3 days incubation. It is filed as cell-based. The text has this: (§1) Generation of HCV Replicon
(§2) An HCV replicon whole cell system was established as described by Lohmann V, Korner F, Koch J, Herian U, Theilmann L, Bartenschlager R., Science 285(5424):110-3 (1999) and modified to introduce a luciferase reporter, as first described by Krieger et al (Krieger N, Lohmann V, and Bartenschlager R, J. Virol. 75(10):4614-4624 (2001)). CDNA encoding a humanized form of the Renilla luciferase gene and a linker sequence fused directly to the 3′-end of the luciferase gene were introduced into the replicon construct using an Asc1 restriction site located in core, directly upstream of the neomycin marker gene. The adaptive mutation at position 1179 (serine to isoleucine) was also introduced (Blight K J, Kolykhalov, A A, Rice, C M, Science 290(5498):1972-1974). A stable cell line constitutively expressing this HCV replicon construct was generated by first linearizing plasmid DNAs with ScaI. RNA transcripts were synthesized in vitro using the T7 MegaScript transcription kit (Ambion, Austin, Tex.) according to manufacturer's directions. In vitro transcripts of the cDNA were transfected into the human hepatoma cell line, HUH-7. […] Resulting cell lines were characterized for positive and negative strand RNA production and protein production over time.
A stable HCV replicon luciferase reporter cell line representing the genotype 1a H77 strain (Yanagi M, Purcell R H, Emerson S U, et al. Transcripts from a single full-length cDNA clone of hepatitis C virus are infectious when directly transfected into the liver of a chimpanzee. Proc Natl Acad Sci USA 1997; 94(16):8738-8743) was generated as described previously for the genotype 1b(Con1) replicon luciferase cell line. The replicon construct was modified by introducing mutations were introduced into the genes encoding the NS3 helicase domain (proline replaced by leucine at position 1496) and NSSA (serine to isoleucine at position 2204) to improve replication in cell culture.
(§3) HCV Replicon Luciferase Reporter Assay
(§4) HCV replicon luciferase assays were developed to monitor the inhibitory effects of compounds described in the disclosure on HCV genotypes 1a and 1b viral replication. HUH-7 cells, constitutively expressing the HCV replicon, were grown in Dulbecco's Modified Eagle Media (DMEM) (Gibco-BRL) containing 10% Fetal calf serum (FCS) (Sigma) and 1 mg/mL G418 (Gibco-BRL). Compounds were serially diluted 3 folds in DMSO for a twenty-point titration and subsequently transferred to sterile 384-well tissue-culture treated plates (Corning cat #3571). The plates were then seeded with 50 μL of cells at a density of 3.0×10^3 cells/well in DMEM containing 4% FCS (final DMSO concentration at 0.5%). After 3 days incubation at 37° C., cells were analyzed for Renilla Luciferase activity using the EnduRen as substrate (Promega cat #E6485). The EnduRen substrate was diluted in DMEM and then added to the plates to a final concentration of 7.5 μM. The plates were incubated for 2 hrs at 37° C. and then read immediately for 30 seconds with Viewlux Imager (PerkinElmer) using a luminescence program. To assess cytotoxicity of compounds, CC50 values were generated by multiplexing the EnduRen-containing plates with Cell Titer-Blue (Promega, cat # G8082). Cell-Titer Blue (3 μL) was added to each well and incubated for 8 hrs at 37° C. The fluorescence signal from each well was read, with an excitation wavelength at 525/10 nm and an emission wavelength of 598/10 nm, using the Viewlux Imager.
(§5) The EC50 values for compounds were calculated by using a four-parameter logistic equation: y=A+((B−A)/(1+((C/x)^D))), where A and B denotes minimal and maximal % inhibition, respectively, C is the EC50, D is the hill slope and x represents compound concentration.
For orientation: Replicon systems follow genome replication, usually without infectious particles.

The test system of assay [2] is HCV genotype 1b (Con1) replicon in HUH-7 cells. As to the kind of experiment: HCV replicon luciferase reporter assay, genotype 1b. It is filed as cell-based. The note with it: Hepatitis C virus, Huh-7, 72 h, HCV genotype 1b replicon luciferase assay, 3 days incubation.
Source text: as §1
as §2, with “time. […]” for “time.”
as §3, §4, §5

Setting [3] is: range class, read-out: LE_1a (EC50, range).
Where [4] appears, read: range class, read-out: LE_1b (EC50, range).
Setting [5] is: GETYPE1A, range class, read-out: LE_1a (EC50, range).
[6] abbreviates: GETYPE1B, range class, read-out: LE_1b (EC50, range).

Molecules are shown by their SMILES. Read-outs that look alike come from different tables or passages of the source.

What is called EC50 is the concentration needed to bring the measured effect to its halfway point.

Turning to `COc1cnc(O[C@@H]2C[C@H]3C(=O)N[C@]4(C(=O)NS(=O)(=O)C5CC5)C[C@H]4/C=C\CC[C@@H](C)C[C@@H](C)[C@H](NC(=O)OC(C)(C)C(F)(F)F)C(=O)N3C2)c2cccc(Cl)c12` [Compound 27, 1,1,1-trifluoro-2-methylpropan-2-yl((2R,6S,7R,9R,13aS,14aR,16aS,Z)-2-((5-chloro-4-methoxyisoquinolin-1-yl)oxy)-14a-((cyclopropylsulfonyl)carbamoyl)-7,9-dimethyl-5,16-dioxo-1,2,3,5,6,7,8,9,10,11,13a,14,14a,15,16,16a-hexadecahydrocyclopropa[e]pyrrolo[1,2-a][1,4]diazacyclopentadecin-6-yl)carbamate], the EC50 in assay [1] (setting [3]) and in assay [2] (setting [4]) was less than 5.46 nM in each case.
For the compound `COc1cnc(O[C@@H]2C[C@H]3C(=O)N[C@]4(C(=O)NS(=O)(=O)C5CC5)C[C@H]4/C=C\CC[C@H](C)C[C@@H](C)[C@H](NC(=O)OC(C)(C)C(F)(F)F)C(=O)N3C2)c2cccc(Cl)c12` [Compound 28, 1,1,1-trifluoro-2-methylpropan-2-yl((2R,6S,7R,9S,13aS,14aR,16aS,Z)-2-((5-chloro-4-methoxyisoquinolin-1-yl)oxy)-14a-((cyclopropylsulfonyl)carbamoyl)-7,9-dimethyl-5,16-dioxo-1,2,3,5,6,7,8,9,10,11,13a,14,14a,15,16,16a-hexadecahydrocyclopropa[e]pyrrolo[1,2-a][1,4]diazacyclopentadecin-6-yl)carbamate], the EC50 in assay [1] (setting [3]) and in assay [2] (setting [4]) was less than 5.46 nM throughout.
In the case of `COc1cnc(O[C@@H]2C[C@H]3C(=O)N[C@]4(C(=O)NS(=O)(=O)C5(F)CC5)C[C@H]4/C=C\CC[C@@H](C)C[C@@H](C)[C@H](NC(=O)OC(C)(C)C(F)(F)F)C(=O)N3C2)c2cccc(Cl)c12` [Compound 30], the EC50 in assay [1] (setting [5]) and in assay [2] (setting [6]) was less than 5.46 nM in each case.
On to `C[C@@H]1CC/C=C\[C@@H]2C[C@@]2(C(=O)NS(=O)(=O)C2CC2)NC(=O)[C@@H]2C[C@@H](Oc3ncc(OC4CC4)c4c(Cl)cccc34)CN2C(=O)[C@@H](NC(=O)OC(C)(C)C(F)(F)F)[C@H](C)C1` [Compound 32], for which the EC50 in assay [1] (setting [5]) and in assay [2] (setting [6]) was less than 5.46 nM throughout.
With `CC(C)n1nc(O[C@@H]2C[C@H]3C(=O)N[C@]4(C(=O)NS(=O)(=O)C5CC5)C[C@H]4/C=C\CC[C@H](C)C[C@@H](C)[C@H](NC(=O)OC(C)(C)C)C(=O)N3C2)c2ccccc2c1=O` [Compound 1001, tert-butyl ((2R,6S,7R,9S,13aS,14aR,16aS,Z)-14a-((cyclopropylsulfonyl)carbamoyl)-2-((3-isopropyl-4-oxo-3,4-dihydrophthalazin-1-yl)oxy)-7,9-dimethyl-5,16-dioxo-1,2,3,5,6,7,8,9,10,11,13a,14,14a,15,16,16a-hexadecahydrocyclopropa[e]pyrrolo[1,2-a][1,4]diazacyclopentadecin-6-yl)carbamate], the EC50 in assay [1] (setting [3]) is more than 87.4 nM; in assay [1] (read-out: LE_1a (EC50)) it was not below 1000 nM; in assay [2] (setting [4]), more than 87.4 nM; in assay [2] (read-out: LE_1b (EC50)) it was 449 nM.
As to `CC(C)n1nc(O[C@@H]2C[C@H]3C(=O)N[C@]4(C(=O)NS(=O)(=O)C5CC5)C[C@H]4/C=C\CC[C@@H](C)C[C@@H](C)[C@H](NC(=O)OC(C)(C)C)C(=O)N3C2)c2ccccc2c1=O` [Compound 1002, tert-butyl ((2R,6S,7R,9R,13aS,14aR,16aS,Z)-14a-((cyclopropylsulfonyl)carbamoyl)-2-((3-isopropyl-4-oxo-3,4-dihydrophthalazin-1-yl)oxy)-7,9-dimethyl-5,16-dioxo-1,2,3,5,6,7,8,9,10,11,13a,14,14a,15,16,16a-hexadecahydrocyclopropa[e]pyrrolo[1,2-a][1,4]diazacyclopentadecin-6-yl)carbamate], the EC50 in assay [1] (setting [3]) was more than 87.4 nM; in assay [2] (setting [4]) it was 4.82 to 103 nM.
Take `CC(C)n1nc(O[C@@H]2C[C@H]3C(=O)N[C@]4(C(=O)NS(=O)(=O)C5(C)CC5)C[C@H]4/C=C\CC[C@H](C)C[C@@H](C)[C@H](NC(=O)OC(C)(C)C)C(=O)N3C2)c2ccccc2c1=O` [Compound 1003, tert-butyl ((2R,6S,7R,9S,13aS,14aR,16aS,Z)-2-((3-isopropyl-4-oxo-3,4-dihydrophthalazin-1-yl)oxy)-7,9-dimethyl-14a-(((1-methylcyclopropyl)sulfonyl)carbamoyl)-5,16-dioxo-1,2,3,5,6,7,8,9,10,11,13a,14,14a,15,16,16a-hexadecahydrocyclopropa[e]pyrrolo[1,2-a][1,4]diazacyclopentadecin-6-yl)carbamate]: the EC50 in assay [1] (setting [3]) and in assay [2] (setting [4]) was more than 87.4 nM each time.
With `CC(C)n1nc(O[C@@H]2C[C@H]3C(=O)N[C@]4(C(=O)NS(=O)(=O)C5(C)CC5)C[C@H]4/C=C\CC[C@@H](C)C[C@@H](C)[C@H](NC(=O)OC(C)(C)C)C(=O)N3C2)c2ccccc2c1=O` [Compound 1004, tert-butyl ((2R,6S,7R,9R,13aS,14aR,16aS,Z)-2-((3-isopropyl-4-oxo-3,4-dihydrophthalazin-1-yl)oxy)-7,9-dimethyl-14a-(((1-methylcyclopropyl)sulfonyl)carbamoyl)-5,16-dioxo-1,2,3,5,6,7,8,9,10,11,13a,14,14a,15,16,16a-hexadecahydrocyclopropa[e]pyrrolo[1,2-a][1,4]diazacyclopentadecin-6-yl)carbamate], the EC50 in assay [1] (setting [3]) was more than 87.4 nM; in assay [1] (read-out: LE_1a (EC50)) it was 110 nM; in assay [2] (setting [4]), 4.82 to 103 nM; in assay [2] (read-out: LE_1b (EC50)), 48.8 nM.
For `COCCn1nc(O[C@@H]2C[C@H]3C(=O)N[C@]4(C(=O)NS(=O)(=O)C5(C)CC5)C[C@H]4/C=C\CC[C@H](C)C[C@@H](C)[C@H](NC(=O)OC(C)(C)C)C(=O)N3C2)c2ccccc2c1=O` [Compound 1005, tert-butyl ((2R,6S,7R,9S,13aS,14aR,16aS,Z)-2-((3-(2-methoxyethyl)-4-oxo-3,4-dihydrophthalazin-1-yl)oxy)-7,9-dimethyl-14a-(((1-methylcyclopropyl)sulfonyl)carbamoyl)-5,16-dioxo-1,2,3,5,6,7,8,9,10,11,13a,14,14a,15,16,16a-hexadecahydrocyclopropa[e]pyrrolo[1,2-a][1,4]diazacyclopentadecin-6-yl)carbamate], the EC50 in assay [1] (setting [3]) and in assay [2] (setting [4]) was more than 87.4 nM throughout.
